# Entries after “also recorded” stand apart in the source; their conditions may differ.
# Columns and labels:
# [1] = tested on: Fischer F344 female rats, spinal cord contusion injury; experiment: Spinal cord contusion injury, injection of bone marrow cells from treated donors into the cavity; assay type: in vivo, rat; conditions: recipients of bone marrow cells from donors given 100 mg/kg orally
# Excerpt: In some embodiments of the invention, cells, preferably bone marrow cells, can be transferred from a first animal treated according to methods of the invention to a site of chronic spinal cord injury in the first animal or in a second animal.
# Fischer F344 female rats (Taconic, Germantown N.Y.) weighing 175-200 g were subjected to 25 mm weight drop contusion injury as previously described (Gruner J A, J. Neurotrauma, 1992 Summer; 9(2):123-8) with slight modifications. Briefly, under isoflurane anethesia, a laminectomy exposing the T8-9 spinal cord segment was performed and a rod weighing 10 g was dropped on the exposed cord from 25 mm height. The rod diameter at its end (where cord-rod interaction takes place) is 2.8 mm. A total of 12 rats were injured. Four animals were used as donor animals, eight as recipients. Two donor animals were administered N-[4-[(4-fluorophenyl)sulfonyl]phenyl]acetamide at a dose of 100 mg/kg orally, and two other animals were treated with vehicle (cyclodextrin, 45% in distilled sterile water). […]
# Doseage levels of with N-[4-[(4-fluorophenyl)sulfonyl]phenyl]acetamide was 100 mg/kg at 20 mg/ml. No difference in cavity size was detected comparing saline treated animals and animals treated with bone marrow cells from vehicle treated donors. […]
# [2] = tested on: cortical neurons on aged astrocytes; experiment: Growth of cortical neurons on aged astrocytes, count of tubulin-positive neurons; assay type: cell-based, Sprague Dawley rat; conditions: 1 week after treatment; for Number of Neurons, Well 2 / Number of Neurons, Well 4: control 74; for Number of Neurons, Well 3: control 89; for Number of Neurons, mean: control 82.50
# Protocol: Astrocytes: postnatal day 2 (P2) Sprague Dawley rat cortices were aseptically dissected and trypsinized for 20 min at 37° C. in 0.25% trypsin-EDTA (GIBCO) and DNAse (0.2 mg/ml, Worthington). Enzyme action was stopped by the addition of soybean trypsin inhibitor (SIGMA)) and DNAse. Tissue was dissociated into single cell suspension by trituration with a 5 ml pipette, filtered though a 40 μm nylon filter and centrifuged at 500×g for 3 minutes. The pellet was taken up in medium (DMEM/10% fetal bovine serum) and cells were plated into poly-D-lysine (10 μg/ml, SIGMA) T75 flasks (one flask/cortex). After 23 days, astrocytes were trypsinized and replated at a density of 500,000 cells per well into poly-D-lysine-coated 24 well plates. Cultures were grown for an additional 20 days in order to let astrocytes mature. This maturation is known to make the astrocytes less permissive for neurite outgrowth (see G. M. Smith, et al., Developmental Biology, 138, 377-390 (1990), and G. M. Smith and J. Silver, Progress in Brain Research, Vol. 78, Chapt. 46, D. M. Cash and J. R. Sladek, ed., Elsevier, 1988.
# Cortical neurons: mixed cortical cells were dissociated from embryonic day 18 Sprague Dawley rat embryos as described for astrocytes. In order to obtain more pure neuonal cultures, cells were subjected to a differential adhesion by pre-plating them on a non-coated bacterial dish (100 mm diameter) for 1 hour. Non-neuronal cells stick to this plate while neurons stay in the supernatant. Neurons were added to the aged astrocytes at a density of 10,000 cells/well in DEME/10% fetal bovine serum. One day later, the cultures were treated with 1 μg/ml and 10 μg/ml of N-4[4-[(4-fluorophenyl)sulfonyl]phenyl]acetamide. 1 week after treatment, cultures were fixed and immunostained with monoclonal anti-tubulin antibody (SIGMA, 1:800 diluted), followed by rhodamine-conjugated goat-anti-mouse secondary (1:100 dilution). Tubulin labels axons and dentrites.
# Analysis: Tubulin-positive cell bodies with a process at least two cell diameters long were counted in 5 visual fields under 10× magnification with a Nikon Eclipse 2000 inverted microscope. Results were expressed as means of quadruplicate wells+/−SEM and are shown in Table I. Any patent application to which this application claims priority is incorporated by reference herein in its entirety.
structure (smiles),measurement,setting,value
CC(=O)Nc1ccc(S(=O)(=O)c2ccc(F)cc2)cc1 [N-[4-[(4-fluorophenyl)sulfonyl]phenyl]acetamide],cavity size at the injury site,"[1]; four weeks after cell injection, vs saline treated animals",decrease in cavity size at the injury site (approximately half the size)
same,Nestin immunoreactive cells at the edge of the injury cavity,"[1]; vs saline or vehicle treated donors, 100 mg/kg",Nestin immunoreactive cells are observed at the edge of the injury cavity; also recorded: significant increase in cells immunoreactive to nestin
same,"Number of Neurons, Well 2",[2]; 1 μg/ml,103
same,"Number of Neurons, Well 4",[2]; 1 μg/ml,176
same,"Number of Neurons, Well 3",[2]; 1 μg/ml,171
same,"Number of Neurons, Well 1","[2]; 1 μg/ml, control 93",132
same,"Number of Neurons, mean","[2]; 1 μg/ml, mean of quadruplicate wells",145.50
same,"Number of Neurons, Well 2",[2]; 10 μg/ml,129
same,"Number of Neurons, Well 4",[2]; 10 μg/ml,133
same,"Number of Neurons, Well 3",[2]; 10 μg/ml,173
same,"Number of Neurons, mean","[2]; 10 μg/ml, mean of wells",145.00
